Assay results: the NIST ThermoML archive (doi:10.1016/j.jct.2016.09.014)

Assay: mn = molality of the nth substance listed, in mol/kg
Settings: 298.15 K, 101.3 kPa, Liquid; for binary diffusion coefficient: Taylor dispersion method; for mass density: Vibrating tube method

NCCCC(=O)O [4-aminobutanoic acid] + O
Settings	binary diffusion coefficient [m2/s]	mass density [kg/m3]
m1 = 0.001003	7.8e-10	–
m1 = 0.00106	–	997.083
m1 = 0.00258	–	997.127
m1 = 0.00467	–	997.199
m1 = 0.005016	7.79e-10	–
m1 = 0.00517	–	997.203
m1 = 0.00833	–	997.308
m1 = 0.01004	7.78e-10	–
m1 = 0.01088	–	997.389
m1 = 0.01968	–	997.658
m1 = 0.02009	7.77e-10	–
m1 = 0.03015	7.76e-10	–
m1 = 0.03823	–	998.069
m1 = 0.05033	7.72e-10	–
m1 = 0.05427	–	998.687
m1 = 0.06297	–	998.944
m1 = 0.07297	–	999.113
m1 = 0.101	7.65e-10	–
m1 = 0.1017	–	1000.1
